In data set [1] the test system is Staphylococcus aureus. As to the kind of experiment: Antibacterial agents against methicillin-resistant Staphylococcus aureus SA3 assessed as absence of growth measured after 18 hrs by micro-dilution method. In kind it is functional.
Data set [2] has as its system Staphylococcus aureus. As to the kind of experiment: Antibacterial agents against methicillin-resistant Staphylococcus aureus USA300 assessed as absence of growth measured after 18 hrs by micro-dilution method. The data set is classed as functional.
Data set [3] deals with Staphylococcus aureus. As to the kind of experiment: Antibacterial agents against methicillin-sensitive Staphylococcus aureus SA1 assessed as absence of growth measured after 18 hrs by micro-dilution method. The data set is classed as functional.
Data set [4] concerns Staphylococcus aureus. As to the kind of experiment: Antibacterial agents against methicillin-sensitive Staphylococcus aureus Newman assessed as absence of growth measured after 18 hrs by micro-dilution method. The data set is classed as functional.
A further data set relates to Bacillus subtilis. Description: Antibacterial agents against Bacillus subtilis PS380 assessed as absence of growth measured after 18 hrs by micro-dilution method. The data set is classed as functional.
In data set [5] the test system is Staphylococcus aureus. As to the kind of experiment: Antibacterial agents against c5-resistant mutant of methicillin-resistant Staphylococcus aureus SA3 m1 assessed as absence of growth measured after 18 hrs by micro-dilution method. In kind it is functional.
Data set [6] relates to Staphylococcus aureus. Description: Antibacterial agents against c5-resistant mutant of methicillin-resistant Staphylococcus aureus SA3 m2 assessed as absence of growth measured after 18 hrs by micro-dilution method. The data set is classed as functional.
Data set [7] deals with Staphylococcus aureus. As to the kind of experiment: Antibacterial agents against c5-resistant mutant of methicillin-resistant Staphylococcus aureus SA3 m3 assessed as absence of growth measured after 18 hrs by micro-dilution method. In kind it is functional.
Data set [8] has as its system Staphylococcus aureus. As to the kind of experiment: Antibacterial agents against c5-resistant mutant of methicillin-resistant Staphylococcus aureus SA3 m4 assessed as absence of growth measured after 18 hrs by micro-dilution method. The data set is classed as functional.
Data set [9] is described as follows: Metabolic stability in human liver microsomes assessed as half life at 2 uM preincubated for 5 mins followed by NADPH addition and measured for 35 mins by LC/MS analysis. In kind it is ADME, Microsome. As to conditions: preincubation 5 min.
Data set [10] can be described thus: Metabolic stability in human liver microsomes assessed as intrinsic clearance at 2 uM preincubated for 5 mins followed by NADPH addition and measured for 35 mins by LC/MS analysis. The data set is classed as ADME, Microsome. As to conditions: read-out: CLH.
The subject of data set [11] is Staphylococcus aureus. Description: Induction of ROS generation in methicillin-resistant Staphylococcus aureus SA3 using hydroxyphenyl fluorescein at 0.09 ug/ml under anaerobic condition. The data set is classed as functional, organism-based. Conditions: dose 0.09 µg/ml, TDE = time-dependent effect.
Data set [12] has as its system Staphylococcus aureus. Description: Induction of ROS generation in methicillin-resistant Staphylococcus aureus USA300 using hydroxyphenyl fluorescein at 0.09 ug/ml under anaerobic condition. The data set is classed as functional, organism-based. Conditions: dose 0.09 µg/ml, TDE = time-dependent effect.
In data set [13] the test system is Staphylococcus aureus. As to the kind of experiment: In vivo antibacterial activity against methicillin-resistant Staphylococcus aureus SA3 infected in dorsal thorax of Drosophila melanogaster strain Oregon R assessed as survival time of Drosophila at 0.2 mg/ml measured upto 72 hrs. The data set is classed as functional.
Data set [14] has as its system Staphylococcus aureus. Description: In vivo antibacterial activity against methicillin-resistant Staphylococcus aureus SA3 infected in dorsal thorax of Drosophila melanogaster strain Oregon R assessed as median survival time of Drosophila at 0.04 to 0.2 mg/ml measured upto 72 hrs. The data set is classed as functional. Conditions: dose 0.04-0.2 mg/ml.
For data set [15], the system named is Staphylococcus aureus. Description: Reduction in virulent activity of methicillin-resistant Staphylococcus aureus SA3 infected in dorsal thorax of Drosophila melanogaster strain Oregon R at 0.2 mg/ml measured upto 72 hrs. The data set is classed as functional, organism-based.
In a further data set the test system is Pseudomonas aeruginosa. Description: Antibacterial agents against gram negative Pseudomonas aeruginosa PA14 assessed as reduction in colony forming unit at 0.05 to 0.2 ug/ml measured upto 10 hrs by LB agar medium method. The data set is classed as functional, organism-based. As to conditions: dose 0.05-0.2 µg/ml.
A further data set relates to Escherichia coli. Description: Antibacterial agents against gram negative Escherichia coli MG1655 assessed as reduction in colony forming unit at 0.05 to 0.2 ug/ml measured upto 10 hrs by LB agar medium method. The data set is classed as functional, organism-based. Conditions: dose 0.05-0.2 µg/ml.

Calls of active or inactive are those of the source. No cut-off for these calls is given here.

Consider `CCCCCC[n+]1c2c(n(CCOC)c1C)C(=O)c1ccccc1C2=O.[Br-]`, for which the MIC in the data set on Staphylococcus aureus [1] is 6.25 mg/L; in the data set with Staphylococcus aureus [2] it was 6.25 mg/L; with Staphylococcus aureus [3] it was 6.25 mg/L; in the data set on Staphylococcus aureus [4], 6.25 mg/L; in the data set on Bacillus subtilis, 6.25 mg/L; in the data set with Staphylococcus aureus [5], over 50 mg/L. In addition, the minimum inhibitory concentration (MIC) in the data set with Staphylococcus aureus [6], with Staphylococcus aureus [7] and in the data set with Staphylococcus aureus [8] was over 50 mg/L in each case. For the same compound, the half-life at 2 µM in data set [9] was determined as 33.7 min. Moreover, in data set [10], the CLint scaled at 2 µM came to 2.22 L/h/kg. Also, the Activity result in the data set with Staphylococcus aureus [11] and with Staphylococcus aureus [12] was “Tde” throughout. The Time stood at 54 h with Staphylococcus aureus [13] and 38 h in the data set on Staphylococcus aureus [14]. In the data set with Staphylococcus aureus [15], the result was inactive.

Regarding POLYMYXIN B, the result in the data set on Pseudomonas aeruginosa and in the data set with Escherichia coli was inactive.

For the origin of these results see ChEMBL document CHEMBL5500375, “Design, synthesis, and evaluation of N1,N3-dialkyldioxonaphthoimidazoliums as antibacterial agents against methicillin-resistant Staphylococcus aureus” (Eur J Med Chem, 2024).
